# Tests used:
# GppNHp-loaded RALA = molecular target: T1, GppNHp-loaded RALA (Homo sapiens, UniProt P11233); assay: Microscale thermophoresis on GppNHp-loaded RALA; assay type: binding; settings: MST, up to 190 μM
# T1 construct: purchased Abcam ab102555
# Procedure: KRAS^G12D (250 μM) in 25 mM HEPES, 100 mM sodium chloride, 2 mM TCEP with 20 mM EDTA and 1 mM GppNHp was shaken at 220 rpm at 30° C. to remove the endogenous nucleotide, The solution was placed on ice for 2 minutes prior to the addition of 65 mM MgCl2. After an additional 10 minutes incubation on ice, 200 uL of a 10 uM solution of KRAS^G12D was combined with 200 uL of a 20 uM solution of NT-647-NHS-ester dye (from a 652.4 μM stock). The protein/dye mixture was rotated at 4° C. for 30 minutes, before being separated from the excess dye and buffer exchanged into 25 mM Tris, 100 mM sodium chloride, 2 mM TCEP, and 5 mM MgCl2 via a nap-5 column. The test compounds were arrayed across a 16-point dilution series consisting of 1.5% DMSO with 25 mM Tris, 100 mM NaCl, 2 mM TCEP, 5 mM MgCl2 and 0.05% tween-20. Thermophoretic movement of the fluorescently labeled protein with the inhibitors was performed using a Monolith NT.115 (Nanotemper Technologies). RALA and RHOA were purchased commercially from Abcam (RALA CN:ab102555, RHOA CN:ab101594).
# To provide evidence that the compound indeed was selective for RAS GTPases, MST binding measurements were performed on GppNHp-loaded RHEB, RHOA and RALA (FIG. 14J).
# SW480 (KRAS^G12V) = assay: Multicellular tumor spheroids in low adherence plates; assay type: cell-based; settings: 72 hours
# Procedure: Multicellular Tumor Spheroids
# Multicellular tumor spheroids (MCTSs) were grown in 96-well Corningware Ultra Low Attachment (ULA) Plates (CLS 3474). 100 μL of cell suspension containing 2×10^4 cells/ml were added to each well of the ULA plate containing 100 μL of a 2× solution of the desired concentration of compounds. Cells were incubated at 37° C., 5% CO2 for 72 hours to allow for MCTS formation. After 72 hours, 50 μL of a 50% solution of Alamar blue and medium was added and incubated for 12 hours prior to measurements on a Victor3 plate reader as previously described.
# [1] = system: HT-1080 cells (NRAS^Q61K) transfected; assay: Sensitivity of HT-1080 cells overexpressing KRAS^G12V, PI3K^E545K, BRAF^V600E; assay type: cell-based; settings: BRAF^V600E or both, 5 μM, 24 h
# Procedure: RAS, PI3K and BRAF Overexpression.
# Phoenix-AMPHO (ATCC: CRL-3213) cells were seeded in a 6-well plate at 600,000 cells/well 24 hours prior to use in 10% FBS and 1% PS in DMEM. A solution of lipofectamine 2000 (6 μL) in 100 μL opti-mem media (reduced serum media) and the plasmid (2.5 μg) in 100 μL opti-mem media were combined and incubated 5 minutes at 25° C., then added to 1.8 mL of opti-mem in each well. After 12 hours, the media was replaced with 10% FBS and 1% PS in DMEM. The next day the supernatant was collected three times spaced 4 hours apart and polybrene was added ( 1/1000). The supernatant was filtered (0.45 μm) and added to HT1080 cells seeded at 100,000 cells per well (6-well dish) in 2 mL portions spaced 4 hours apart. After 48 hours, the cells were trypsinized and re-seeded in medium containing puromycin (2 μg/mL). After 6 days of selection the cells were analyzed for expression using the aforementioned qPCR procedure. 2 mL solutions of the inhibitors were added to a 6-well plate of the transfected HT-1080 cells (100,000 cells/well) and treated for 24 hours. The cells were then trypsinized, re-suspended in 1 mL of medium and viability was measured by VI-CELL (Beckman Coulter) through mixing with trypan blue.
# [2] = system: Mia-Paca2, NCI-H441, NCI-H23, BJeLR and HT1080 cells; assay: Expression of the mutant RAS isoform by qPCR; assay type: cell-based; settings: 4 and 24 hours, 10 μM
# Source text: Samples were normalized to DMSO treatment.
# In addition to altering genes associated with RAS activation, it was hypothesized that upon inhibitor treatment, cells would attempt to compensate by expressing additional RAS proteins.
# [3] = system: KRAS^LSLG12D; p53^fl/fl; Pdx1-Cre pancreatic tumors; assay: KP^f/fC mouse study; assay type: in vivo; settings: for toxicity: 30 mg/kg once daily i.p.
# Procedure: KRAS^LSLG12D; p53^fl/fl; Pdx1-Cre (KP^F/FC) mice have been previously described (Bardeesy et al., 2006). Animals were housed in a barrier facility and monitored daily prior to enrollment on studies. All experiments were carried out in compliance with established IACUC guidelines of Columbia University.
# Paraffin embedded samples were sectioned at […] and mounted on positively charged sample slides. These slides were heated at 60° C. for 15-30 minutes and subsequently rehydrated by standard protocols. Unmasking was performed in 10 mM citrate buffer, pH 6 for 5 minutes in a pressure cooker at high temperature, followed by a peroxidase quench in 3% hydrogen peroxide for 20 minutes. Blocking was carried out using 1.5% horse serum and 2% animal free blocker (Vector Labs) in TBS-T for 1 hour at room temperature. Slides were incubated with primary antibody (cleaved caspase-3, catalog no. 9664; ERK, catalog no. 4695; pERK, catalog no. 4376. All antibodies from Cell Signaling) overnight at 4° C. Slides were then allowed to equilibrate to room temperature prior to washing with TBS-T and incubation with secondary antibody (ImmPress polymer reagent, Vector Labs). Signal was developed with ImmPACT DAB Peroxidase Substrate (Vector Labs). Slides were counterstained with hematoxylin for 30 seconds. For quantification of cleaved-caspase 3 staining, all available 40× fields on three separate sections of biopsy samples and twenty total 40× fields from two separate sections of necropsy samples were analyzed for each study mouse.
# Mice were monitored closely for changes in health status and were sacrificed after 5 days on study or once they met endpoint criteria in keeping with IACUC standards.
# [4] = pre- vs post-treatment tumor samples, 30 mg/kg i.p.
# T1 sequence (P11233 whole entry): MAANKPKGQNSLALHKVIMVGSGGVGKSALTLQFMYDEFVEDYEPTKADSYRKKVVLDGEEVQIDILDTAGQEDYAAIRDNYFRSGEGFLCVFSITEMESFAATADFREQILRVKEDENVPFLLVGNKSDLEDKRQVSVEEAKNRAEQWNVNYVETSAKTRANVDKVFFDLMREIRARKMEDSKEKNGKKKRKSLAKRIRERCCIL
compound,measurement,setting,value
"NC1(C(=O)NCCCn2cc(-c3ccc(OC(F)(F)F)cc3)c3cc(CN4CCN(Cc5c(Cl)cccc5Cl)CC4)ccc32)CCNCC1 [Compound 31MEW44, 4-amino-N-(3-(5-((4-(2,6-dichlorobenzyl)piperazin-1-yl)methyl)-3-(4-(trifluoromethoxy)phenyl)-1H-indol-1-yl)propyl)piperidine-4-carboxamide]",binding,GppNHp-loaded RALA,no binding was observed
same,size of multicellular tumor spheroids,SW480 (KRAS^G12V),decreased in size in a dose-dependent manner
same,resistance on overexpression,[1],resistance was indeed observed in all cases
same,RAS expression,[2],time-dependent increase of RAS expression
same,toxicity,[3]; KP^f/fC mice,toxicity was observed
same,cleaved caspase-3 in tumor,"[3]; immunohistochemistry, 30 mg/kg i.p.",modest increase in cleaved caspase-3
same,phosphorylated AKT (S473) in tumor,[3]; [4],substantial decrease
same,phosphorylated ERK1/2 in tumor,[3]; [4],substantial decrease
same,toxicity,[3]; wild-type mice,not in wild-type mice
